One assay concerns human 17β-HSD2. The arrangement: method as in earlier work. The note with it: Human placental, microsomal fraction, substrate E2, 500 nM, cofactor NAD+, 1500 µM; ref literature (references indicated with the structural formulas in Fig. 3); read-out: Human IC50 17ß-HSD2; cited from earlier work.
For another assay, the target named is marmoset 17β-HSD2 (Callithrix jacchus, UniProt U3BEV1). As to the kind of experiment: Inhibition of marmoset 17β-HSD2 (placental microsomes, tritiated E2, HPLC). In kind it is biochemical, marmoset monkey (callithrix jacchus). The note with it: Logit transformed values calculated from % inhibition at 50 nM inhibitor concentration (trend for <30% or >70%), placental microsomal fraction, substrate E2 500 nM, NAD+ 1500 µM; for IC50: read-out: Marmoset IC50 17ß-HSD2. The procedure:
(§1) Marmoset placental tissue was used as enzyme source and the proteins were partially purified following a described procedure. Tritiated E1 was incubated with 17β-HSD1, cofactor and inhibitor. The separation of substrate and product was performed by HPLC. In an assay similar to the 17β-HSD1 test, marmoset placental microsomes containing 17β-HSD2 were incubated with tritiated E2 in the presence of NAD^+ and inhibitor. Labelled product was quantified after HPLC separation.
(§2) [2, 4, 6, 7-^3H]-E1 and [2, 4, 6, 7-^3H]-E2 were bought from Perkin Elmer, Boston. Quickszint Flow 302 scintillator fluid was bought from Zinsser Analytic, Frankfurt. Marmoset 17β-HSD1 and 17β-HSD2 were obtained from marmoset placenta according to previously described procedures. Fresh marmoset placenta was homogenized and cytosolic and microsomal fractions were separated by centrifugation. For the partial purification of 17β-HSD1, the cytosolic fraction was precipitated with ammonium sulfate. 17β-HSD2 was obtained from the microsomal fraction.
The 17β-HSD2 inhibition assay was performed similarly to the 17β-HSD1 procedure. The microsomal fraction was incubated with NAD^+ [1500 µM], test compound and a mixture of unlabelled- and [2, 4, 6, 7-^3H]-E2 (final concentration: 500 nM, 0.11 µCi) for 20 min at 37°C. Further treatment of the samples and HPLC separation was carried out as mentioned above. The conversion rate was calculated after analysis of the resulting chromatograms according to the following equation: [drawing 2] .

The subject of the next assay is human 17β-HSD1. The arrangement: method as in earlier work. The note with it: Human placental, cytosolic fraction, substrate E1, 500 nM, cofactor NADH, 500 µM; ref literature (references indicated with the structural formulas in Fig. 3); read-out: Human IC50 17ß-HSD1; cited from earlier work.
Another assay addresses T1, marmoset 17β-HSD1 (Callithrix jacchus, UniProt Q9GME2).
T1 construct: For the partial purification of 17β-HSD1, the cytosolic fraction was precipitated with ammonium sulfate; from tissue; host or cells: marmoset placenta, cytosolic fraction, ammonium sulfate precipitate
T1 sequence (Q9GME2 1-314): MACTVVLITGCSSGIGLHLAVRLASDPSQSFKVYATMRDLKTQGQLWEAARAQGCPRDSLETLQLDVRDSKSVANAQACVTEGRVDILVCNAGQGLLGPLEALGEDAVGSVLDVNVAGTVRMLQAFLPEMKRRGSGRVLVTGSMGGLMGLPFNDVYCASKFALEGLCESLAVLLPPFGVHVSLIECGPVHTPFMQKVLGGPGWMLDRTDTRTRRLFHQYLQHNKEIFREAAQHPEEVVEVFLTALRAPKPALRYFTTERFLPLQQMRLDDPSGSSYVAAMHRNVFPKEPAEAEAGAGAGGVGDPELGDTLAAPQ
The assay can be described thus: Inhibition of marmoset 17β-HSD1 (placental cytosolic fraction, tritiated E1, HPLC). In kind it is biochemical, marmoset monkey (callithrix jacchus). The note with it: for IC50: read-out: Marmoset IC50 17ß-HSD1. The protocol:
as §1, §2
Inhibitory activities were evaluated by an established method with minor modifications. Briefly, the enzyme preparation was incubated with NADH [500 µM] in the presence of potential inhibitors at 37°C in a phosphate buffer (50 mM) supplemented with 20% of glycerol and EDTA (1 mM). Inhibitor stock solutions were prepared in DMSO. The final concentration of DMSO was adjusted to 1% in all samples. The enzymatic reaction was started by addition of a mixture of unlabelled- and [2, 4, 6, 7-^3H]-E1 (final concentration: 500 nM, 0.15 µCi). After 10 min, the reaction was stopped by the addition of HgCl2 (10 mM) and the mixture was extracted with diethylether. After evaporation, the steroids were dissolved in acetonitrile. E1 and E2 were separated using acetonitrile/water (45∶55) as mobile phase in a C18 reverse phase chromatography column (Nucleodur C18 Gravity, 3 µm, Macherey-Nagel, Düren) connected to an HPLC-system (Agilent 1200 Series, Agilent Technologies, Waldbronn). Detection and quantification of the steroids were performed using a radioflow detector (Agilent 1200 Series, Agilent Technologies, Waldbronn). The conversion rate was calculated after analysis of the resulting chromatograms according to the following equation: [drawing 1] . Each value was calculated from at least three independent experiments.

Where [1] appears, read: Logit transformed values calculated from % inhibition, inhibitor concentration: 5 nM, placental cytosolic fraction, substrate E1 500 nM, NADH 500 µM.
Setting [2] is: Logit transformed values calculated from % inhibition at 50 nM inhibitor concentration (trend for <30% or >70%), placental cytosolic fraction, substrate E1 500 nM, NADH 500 µM.

Each structure is given as a SMILES string. Where two headings read alike, the source gives them in different places. Bounds are passed on as bounds.

marmoset 17β-HSD2, sequence (U3BEV1 entry or part of it): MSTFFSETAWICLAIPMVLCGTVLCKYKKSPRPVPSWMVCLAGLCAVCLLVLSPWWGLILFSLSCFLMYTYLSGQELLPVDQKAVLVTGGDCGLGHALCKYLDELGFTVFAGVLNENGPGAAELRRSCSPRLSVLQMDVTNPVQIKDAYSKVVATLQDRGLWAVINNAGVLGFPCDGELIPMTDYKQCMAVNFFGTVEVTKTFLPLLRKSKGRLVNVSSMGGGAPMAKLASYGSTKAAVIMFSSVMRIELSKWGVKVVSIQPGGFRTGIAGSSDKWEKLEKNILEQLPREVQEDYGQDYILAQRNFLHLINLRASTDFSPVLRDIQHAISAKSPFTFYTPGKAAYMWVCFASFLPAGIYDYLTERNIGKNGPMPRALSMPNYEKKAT

As for `Oc1ccc(-c2ccc(-c3cc(O)cc(F)c3)s2)cc1` [Compound 6], the IC50 was 463 nM with human 17β-HSD2, 85 nM on marmoset 17β-HSD2, 42 nM with human 17β-HSD1 and < 5 nM at marmoset 17β-HSD1 (setting [1]).

Take `Oc1cccc(-c2ccc3c(-c4ccccc4)c(O)ccc3c2)c1` [Compound 17]: the IC50 in the assay on human 17β-HSD2 was 540 nM; at marmoset 17β-HSD2, > 50 nM; in the assay with human 17β-HSD1, 20 nM; at marmoset 17β-HSD1 (setting [2]), 52 nM.

As for `CS(=O)(=O)Nc1cccc(-c2c(O)ccc3cc(-c4cccc(O)c4)ccc23)c1` [Compound 19], the IC50 was 403 nM in the assay with human 17β-HSD2, > 50 nM on marmoset 17β-HSD2, 15 nM in the assay on human 17β-HSD1 and > 50 nM on marmoset 17β-HSD1 (setting [2]).

In the case of `Cc1cc(-c2ccc(-c3cccc(O)c3)s2)ccc1O` [Compound 4], the IC50 in the assay on human 17β-HSD2 is 1970 nM; on marmoset 17β-HSD2, > 50 nM; in the assay with human 17β-HSD1, 46 nM; on marmoset 17β-HSD1 (setting [2]) it was < 50 nM.

With `Oc1cccc(-c2ccc3c(-c4cccc(O)c4)c(O)ccc3c2)c1` [Compound 15], the IC50 in the assay on human 17β-HSD2 is 959 nM; at marmoset 17β-HSD2, > 50 nM; in the assay with human 17β-HSD1, 36 nM; at marmoset 17β-HSD1 (setting [2]), 32 nM.

Take `Oc1cccc(-c2ccc(-c3ccc(O)c(F)c3)s2)c1` [Compound 1]: the IC50 was 940 nM in the assay with human 17β-HSD2, > 50 nM at marmoset 17β-HSD2, 8 nM with human 17β-HSD1 and < 5 nM at marmoset 17β-HSD1 (setting [1]).

For the compound `Oc1cc(F)cc(-c2ccc(-c3ccc(O)c(F)c3)s2)c1` [Compound 7], the IC50 in the assay with human 17β-HSD2 is 218 nM; at marmoset 17β-HSD2, 43 nM; in the assay on human 17β-HSD1 it was 17 nM; at marmoset 17β-HSD1 (setting [1]), < 5 nM.

Regarding `Nc1cccc(-c2c(O)ccc3cc(-c4cccc(O)c4)ccc23)c1` [Compound 18], the results for the half-maximal inhibitory concentration (IC50) at marmoset 17β-HSD2 and in the assay with human 17β-HSD1 were > 50 nM and 53 nM, respectively. The “Marmoset IC50 17ß-HSD1” value at marmoset 17β-HSD1 (setting [2]) is given as “n.i”.

For `Oc1ccc(-c2ccc(-c3cccc(O)c3)s2)cc1` [Compound 3], the IC50 with human 17β-HSD2 was 1950 nM; on marmoset 17β-HSD2 it was > 50 nM; in the assay on human 17β-HSD1, 69 nM; at marmoset 17β-HSD1 (setting [2]) it was 31 nM.

As for `CC(=O)Nc1cccc(-c2c(O)ccc3cc(-c4cccc(O)c4)ccc23)c1` [Compound 20], the IC50 is 1240 nM with human 17β-HSD2, 83 nM in the assay on human 17β-HSD1 and > 50 nM at marmoset 17β-HSD1 (setting [2]). Besides, the “Marmoset IC50 17ß-HSD2” value at marmoset 17β-HSD2 was “n.i”.

For `Oc1cccc(-c2ccc3cc(O)ccc3c2)c1` [Compound 14], the IC50 was 5640 nM in the assay on human 17β-HSD2, 116 nM in the assay with human 17β-HSD1 and > 50 nM on marmoset 17β-HSD1.

For `O=C(c1cccc(O)c1)c1ccc(-c2ccc(O)cc2)s1` [Compound 12], the IC50 was 478 nM in the assay on human 17β-HSD2, 43 nM at marmoset 17β-HSD2, 33 nM in the assay on human 17β-HSD1 and < 50 nM at marmoset 17β-HSD1 (setting [2]). Besides, the “Inhibitory potency toward marmoset 17β-HSD1 compared to the human enzyme” value at marmoset 17β-HSD1 (comparison in words, marmoset vs human 17β-HSD1) was “Comparable inhibition data”.

In the case of `Cc1cc(-c2cnc(-c3cccc(O)c3)s2)ccc1O` [Compound 5], the IC50 in the assay on human 17β-HSD2 was 2020 nM; at marmoset 17β-HSD2, > 50 nM; in the assay on human 17β-HSD1 it was 143 nM; at marmoset 17β-HSD1 (setting [2]), < 50 nM.

Consider `Oc1cccc(-c2ccc3c(-c4cccnc4)c(O)ccc3c2)c1` [Compound 16], for which the concentration for half-maximal inhibition (IC50) in the assay with human 17β-HSD2 is 1160 nM; at marmoset 17β-HSD2, > 50 nM; in the assay with human 17β-HSD1 it was 26 nM; at marmoset 17β-HSD1 (setting [2]), > 50 nM.

With `Oc1ccc(-c2cnc(-c3cccc(O)c3)s2)cc1` [Compound 2], the IC50 is 4000 nM in the assay with human 17β-HSD2, > 50 nM on marmoset 17β-HSD2, 50 nM with human 17β-HSD1 and 102 nM at marmoset 17β-HSD1 (setting [2]).

As a reminder, the IC50 is the concentration needed to halve the response being measured.

The values above are taken from PMC3153478, “Structural Basis for Species Specific Inhibition of 17β-Hydroxysteroid Dehydrogenase Type 1 (17β-HSD1): Computational Study and Biological Validation” (PLoS ONE, 2011).
